Results published in paper PMC8264055, “Pharmacokinetics of Colistin in the Gastrointestinal Tract of Poultry Following Dosing via Drinking Water and Its Bactericidal Impact on Enteric Escherichia coli” (Frontiers in Veterinary Science, 2021).
Structures can show the parent of a compound that is named as a salt. Positions of bridges follow the written chain, without caps; N, C: chain ends. Non-standard residues stand in square brackets, D forms with d. Residues, ends and D or L forms follow the SMILES beside them. *: point of attachment. X1 = CC[C@H](C)CCCCC(=O)*; Dab = NCC[C@H](N)C(=O)O

How the values were obtained:
[1] = tested on: enteric E. coli; assay: Enumeration of E. coli in luminal intestinal content on UriSelect 4 agar during and after colistin treatment; format: in vivo, Escherichia coli
Excerpt: (§1) This study was approved by the Royal Veterinary College ethics and welfare committee. One hundred Ross 308 broiler chicken (Gallus gallus domesticus) were obtained from an approved supplier and housed in the animal welfare barn (AWB) at the Royal Veterinary College. Poultry were group-housed and fed baby chick crumbs (Smallholder Range, Norfolk, UK), a feed free of coccidiostats and designed to feed from hatching to 6–8 weeks, and given free access to water for the duration of the study. At 13 days, six birds were separated and maintained as a control group for the course of the study with the remaining 94 birds constituting the study group. European Pharmacopeia-compliant Meiji Seika Pharma's colistin sulfate (ColiMeiji®, hereafter “colistin”) consisting of a 78.53% (“as is”) mixture of colistin A (polymyxin E1) and colistin B (polymyxin E2), was per certificate of analysis (CoA) supplied by Wyjolab (Chaillac, France). Potency of colistin (as reported by CoA) was 23,558 IU/mg, and dosing was calculated as equivalent colistin base. Colistin was administered via drinking water to the study group at a dose equal to 75,000 IU/kg/day over a period of 3 days. The volume of colistin stock solution (2,000,000 IU/ml) diluted per 3-L drinking bell (Poultry Drinker 3L, Farm & Country Supplies, Alton, Hampshire, UK) was based on the average bird weight and water consumption measured on the day prior to dosing. Actual dose received every 24 h was back calculated based on measured water consumption for that period and bird weights. Birds were housed in a 25-m^2 floor pen with access to 5 × 3-L drinking bells, refreshed every 24 h. Average relative humidity was 44.5% (range: 29–63%) and average temperature 24°C (range: 20–28°C). Birds were provided a 14-h photoperiod aligned with onset of dosing (0 h) at 07:00.
The study group was sampled at predetermined times pre-dose (0 h), during oral dosing (at 12, 36, and 54 h), at cessation of dosing (72 h), and after dosing (73, 74, 76, 80, 84, 96, 120, and 144 h from the onset of dosing). At each time point, eight birds were sacrificed, except at 12, 36, and 54 h where only six birds were sacrificed. After neck dislocation, cloacal swabs were immediately taken, and the whole small intestine was excised after placing three ligatures (one around the duodenum, one on the ileum just proximally to the cecal attachment, and one distally to include the large intestine). All samples were stored at 4°C for no more than 48 h prior to further analysis. […]
UriSelect 4™ agar (Bio-Rad, Watford, UK) plates were used for enumeration and isolation of E. coli from LIC. […] Bacterial counts in original LIC were back calculated based on the total number of colonies countable on UriSelect 4™ agar. […]

[2] = Colistin content in luminal intestinal content (LIC) by UHPLC-MS/MS, non-compartmental PK analysis; format: in vivo, broiler chicken (Gallus gallus domesticus)
Excerpt: as §1
The study group was sampled at predetermined times pre-dose (0 h), during oral dosing (at 12, 36, and 54 h), at cessation of dosing (72 h), and after dosing (73, 74, 76, 80, 84, 96, 120, and 144 h from the onset of dosing). At each time point, eight birds were sacrificed, except at 12, 36, and 54 h where only six birds were sacrificed. After neck dislocation, cloacal swabs were immediately taken, and the whole small intestine was excised after placing three ligatures (one around the duodenum, one on the ileum just proximally to the cecal attachment, and one distally to include the large intestine). All samples were stored at 4°C for no more than 48 h prior to further analysis. All birds in the control group underwent cloacal sampling at matching time points.
Each intestinal specimen was individually processed with a new set of examination gloves and blades to avoid carry over or contamination. The ceca were separated from the small intestine by cutting off the ileum proximally to the ligature. The luminal intestinal content (LIC) was then evacuated through peristaltic massage of the small intestine in a proximal-to-distal direction. Extracted LIC was mixed to ensure a homogenous sample, and 200 mg (±2 mg) aliquots were separated for further testing. Parietal intestinal content (PIC) was collected following LIC; the intestine was inflated with air, straightened, and longitudinally incised with a scalpel blade no. 11. The opened intestine was flattened, and the blade was used to scrape the parietal lining of the intestine. Luminal cecal content (LCC) was extracted in a similar fashion following incision at one end. Aliquots for colistin quantification were stored at −80°C or at 4°C for bacterial enumeration and isolation.
Total colistin content was quantified using a novel ultra-high-performance liquid chromatography-tandem mass spectrometry (UHPLC-MS/MS) method. […]

[3] = during dosing, 75,000 IU/kg/day via drinking water, n = 6, median baseline 3.6 × 10^6 CFU/g
[4] = LIC, nominal dose 75,000 IU/kg/day, NCA sparse option, 6 to 8 birds per time point
[5] = nominal dose 75,000 IU/kg/day via drinking water, from partial AUC, NCA sparse option

For CC[C@H](C)CCCCC(=O)N[C@@H](CCN)C(=O)N[C@H](C(=O)N[C@@H](CCN)C(=O)N[C@H]1CCNC(=O)[C@H]([C@@H](C)O)NC(=O)[C@H](CCN)NC(=O)[C@H](CCN)NC(=O)[C@H](CC(C)C)NC(=O)[C@@H](CC(C)C)NC(=O)[C@H](CCN)NC1=O)[C@@H](C)O [colistin, colistin sulfate] (X1-[Dab]T[Dab][Dab][Dab][dL]L[Dab][Dab]T; lactam 4-C), the “median E. coli count in LIC at 96, 120 and 144 h” value ([1]; after dosing, to end of the experiment, n = 8 per time point) was ~5 × 10^5, the “median E. coli count in LIC at 36 h” value [1, 3] was 3.9 × 10^3 CFU/g and the “median E. coli count in LIC at 54 h” value [1, 3] was 1.56 × 10^4 CFU/g. For the same compound, the “log reduction in the number of E. coli” value ([1]; up to 36 h post-onset of colistin administration) was > 3 log, the “Partial AUC, AUC0-24h (first day)” value [2, 4] was 54.1 mg·h/kg and the “Partial AUC, AUC24-48h (second day)” value [2, 4] was 75.5 mg·h/kg. The “Partial AUC, AUC48-72h (third day)” value [2, 4] was 112.6 mg·h/kg, the tissue level at time at 72 h ([2]; Ross 308 broiler, luminal intestinal content (LIC), po, 75000 IU/kg/day, 75,000 IU/kg/day via drinking water for 72 h, 72 h, mean of n = 8 birds, read-out: mean colistin content in LIC at cessation of dosing) was 4510 ng/g and the “mean colistin content in LIC, peak” value ([2]; broiler chickens, colistin sulfate 75,000 IU/kg/day via drinking water for 72 h, 54 h from onset of dosing, mean of n = 6 birds, UHPLC-MS/MS, LOQ 1.1 mg/kg) was 5.09 mg/kg. For the same compound, the “Average colistin luminal intestinal content, 0-48 h (first and second day)” value [2, 5] was 2.70 mg/kg digesta and the “Average colistin luminal intestinal content, 24-48 h (second day)” value [2, 5] was 3.15 mg/kg digesta.
